According to patent US6737383B1, “Herbicidal oxadiazolidines” (priority 1999, dated 2004):

Key:
bedstraw = experiment: Test B pre/postemergence bedstraw; assay type: in vivo, Galium aparine; conditions: Postemergence
How it was run: (§1)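 Herbicidal effect was estimated by eye on a ten-point control scale after plants spent twelve to sixteen days in a greenhouse following soil or foliar treatment. Foliar sprays targeted plants at one to four leaves; all doses were formulated in a non-phytotoxic solvent with surfactant.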

blackgrass = experiment: Test B pre/postemergence blackgrass; assay type: in vivo, Alopecurus myosuroides
How it was run: as §1

surinam grass = experiment: Test B pre/postemergence surinam grass; assay type: in vivo, Brachiaria decumbens
How it was run: as §1

cocklebur = experiment: Test B pre/postemergence cocklebur; assay type: in vivo, Xanthium strumarium
How it was run: as §1

corn = experiment: Test B pre/postemergence corn; assay type: in vivo, Zea mays
How it was run: as §1

giant foxtail = experiment: Test B pre/postemergence giant foxtail; assay type: in vivo, Setaria faberii
How it was run: as §1

morningglory = experiment: Test B pre/postemergence morningglory; assay type: in vivo, Ipomoea hederacea
How it was run: as §1

pigweed = experiment: Test B pre/postemergence pigweed; assay type: in vivo, Amaranthus retroflexus
How it was run: as §1

rape = experiment: Test B pre/postemergence rape; assay type: in vivo, Brassica napus
How it was run: as §1

soybean = experiment: Test B pre/postemergence soybean; assay type: in vivo, Glycine max
How it was run: as §1

sugar beet = experiment: Test B pre/postemergence sugar beet; assay type: in vivo, Beta vulgaris
How it was run: as §1

velvetleaf = experiment: Test B pre/postemergence velvetleaf; assay type: in vivo, Abutilon theophrasti
How it was run: as §1

purple nutsedge = experiment: Test B pre/postemergence purple nutsedge; assay type: in vivo, Cyperus rotundus
How it was run: as §1

smallflower flatsedge = experiment: Test B flood test smallflower flatsedge; assay type: in vivo, Cyperus difformis
How it was run: (§2)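 Read-out is a visual response score from 0 (no effect) to 10 (complete control), assigned by comparison with untreated controls. Treatment was applied at the 2-leaf stage, and plants stayed in the greenhouse for twelve to sixteen days before scoring.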

duck salad = experiment: Test B flood test duck salad; assay type: in vivo, Heteranthera limosa
How it was run: as §2

bamyardgrass = experiment: Test B flood test barnyardgrass; assay type: in vivo, Echinochloa crus-galli
How it was run: as §2

[1] = Postemergence, Rate 62 g/ha, scale 0 to 10, 0 is no effect, 10 is complete control
[2] = Postemergence, Rate 125 g/ha, scale of 0 to 10 where 0 is no effect and 10 is complete control
[3] = Postemergence, Rate 250 g/ha, scale of 0 to 10, 0 is no effect, 10 is complete control
[4] = Preemergence, Rate 62 g/ha, scale of 0 to 10 where 0 is no effect and 10 is complete control
[5] = Preemergence, Rate 125 g/ha, scale of 0 to 10 where 0 is no effect and 10 is complete control
[6] = Preemergence, Rate 250 g/ha, scale 0 to 10 (0 no effect, 10 complete control)
[7] = Preemergence, Rate 500 g/ha, scale of 0 to 10 where 0 is no effect and 10 is complete control
[8] = Rate 500 g/ha, Postemergence, scale 0 to 10, 0 is no effect, 10 is complete control
[9] = Rate 62 g/ha, flood test species, Pre-emergence, visual evaluation after twelve to sixteen days
[10] = Rate 125 g/ha, under heading Pre-emergence, flood test species, visual evaluation after twelve to sixteen days
[11] = Rate 250 g/ha, Pre-emergence (flood test species), scale 0 to 10, 0 is no effect, 10 is complete control
[12] = Rate 500 g/ha, Pre-emergence section of Table B, 0 to 10 scale (0 no effect, 10 complete control)

Compound: CC(C)N(C(=O)n1oc(=O)n(CC2CCCCO2)c1=O)c1ccc(Cl)cc1 (stereo not drawn) [Compound 660]
- Plant response rating, Bedstraw (bedstraw; Rate 62 g/ha, scale 0 to 10, 0 is no effect, 10 is complete control): 0
- Bedstraw plant response rating (bedstraw; Rate 125 g/ha, scale of 0 to 10 where 0 is no effect and 10 is complete control): 0
- Bedstraw plant response rating (bedstraw; Rate 500 g/ha, scale 0 to 10, 0 is no effect, 10 is complete control): 0
- Plant response rating, Blackgrass (blackgrass; [1]): 0
- Blackgrass plant response rating (blackgrass; [2]): 0
- Blackgrass plant response rating (blackgrass; [3]): 3
- Blackgrass plant response rating (blackgrass; [4]): 0
- Blackgrass plant response rating (blackgrass; [5]): 4
- Plant response rating, Blackgrass (blackgrass; [6]): 6
- Plant response rating, Blackgrass (blackgrass; [7]): 7
- Blackgrass plant response rating (blackgrass; [8]): 6
- Plant response rating, B. signalgrass (surinam grass; [1]): 0
- Plant response rating, B. signalgrass (surinam grass; [2]): 0
- B. signalgrass plant response rating (surinam grass; [3]): 0
- B. signalgrass plant response rating (surinam grass; [4]): 0
- B. signalgrass plant response rating (surinam grass; [5]): 1
- Plant response rating, B. signalgrass (surinam grass; [6]): 4
- Plant response rating, B. signalgrass (surinam grass; [7]): 4
- B. signalgrass plant response rating (surinam grass; [8]): 5
- Plant response rating, Cocklebur (cocklebur; [1]): 0
- Cocklebur plant response rating (cocklebur; [2]): 0
- Cocklebur plant response rating (cocklebur; [3]): 2
- Cocklebur plant response rating (cocklebur; [4]): 0
- Cocklebur plant response rating (cocklebur; [5]): 0
- Plant response rating, Cocklebur (cocklebur; [6]): 0
- Plant response rating, Cocklebur (cocklebur; [7]): 0
- Cocklebur plant response rating (cocklebur; [8]): 2
- Plant response rating, Corn (corn; [1]): 0
- Corn plant response rating (corn; [2]): 0
- Corn plant response rating (corn; [3]): 0
- Corn plant response rating (corn; [4]): 0
- Corn plant response rating (corn; [5]): 0
- Plant response rating, Corn (corn; [6]): 0
- Plant response rating, Corn (corn; [7]): 0
- Corn plant response rating (corn; [8]): 2
- Plant response rating, Giant foxtail (giant foxtail; [1]): 3
- Giant foxtail plant response rating (giant foxtail; [2]): 4
- Giant foxtail plant response rating (giant foxtail; [3]): 5
- Giant foxtail plant response rating (giant foxtail; [4]): 8
- Giant foxtail plant response rating (giant foxtail; [5]): 10
- Plant response rating, Giant foxtail (giant foxtail; [6]): 10
- Plant response rating, Giant foxtail (giant foxtail; [7]): 10
- Giant foxtail plant response rating (giant foxtail; [8]): 8
- Plant response rating, Morningglory (morningglory; [1]): 1
- Morningglory plant response rating (morningglory; [2]): 4
- Morningglory plant response rating (morningglory; [3]): 6
- Morningglory plant response rating (morningglory; [4]): 0
- Morningglory plant response rating (morningglory; [5]): 0
- Plant response rating, Morningglory (morningglory; [6]): 0
- Plant response rating, Morningglory (morningglory; [7]): 0
- Morningglory plant response rating (morningglory; [8]): 7
- Plant response rating, Redroot pigweed (pigweed; [1]): 2
- Redroot pigweed plant response rating (pigweed; [2]): 2
- Redroot pigweed plant response rating (pigweed; [4]): 0
- Redroot pigweed plant response rating (pigweed; [5]): 5
- Plant response rating, Redroot pigweed (pigweed; [6]): 7
- Plant response rating, Redroot pigweed (pigweed; [7]): 10
- Redroot pigweed plant response rating (pigweed; [8]): 6
- Plant response rating, Rape (rape; [1]): 0
- Rape plant response rating (rape; [2]): 0
- Rape plant response rating (rape; [4]): 0
- Rape plant response rating (rape; [5]): 0
- Plant response rating, Rape (rape; [6]): 3
- Plant response rating, Rape (rape; [7]): 4
- Rape plant response rating (rape; [8]): 0
- Plant response rating, Soybean (soybean; [1]): 2
- Soybean plant response rating (soybean; [2]): 3
- Soybean plant response rating (soybean; [4]): 0
- Soybean plant response rating (soybean; [5]): 0
- Plant response rating, Soybean (soybean; [6]): 0
- Plant response rating, Soybean (soybean; [7]): 0
- Soybean plant response rating (soybean; [8]): 6
- Plant response rating, Sugarbeets (sugar beet; [1]): 0
- Sugarbeets plant response rating (sugar beet; [2]): 0
- Sugarbeets plant response rating (sugar beet; [4]): 0
- Sugarbeets plant response rating (sugar beet; [5]): 0
- Plant response rating, Sugarbeets (sugar beet; [6]): 0
- Plant response rating, Sugarbeets (sugar beet; [7]): 0
- Sugarbeets plant response rating (sugar beet; [8]): 0
- Plant response rating, Velvetleaf (velvetleaf; [1]): 0
- Velvetleaf plant response rating (velvetleaf; [2]): 2
- Velvetleaf plant response rating (velvetleaf; [4]): 0
- Velvetleaf plant response rating (velvetleaf; [5]): 0
- Plant response rating, Velvetleaf (velvetleaf; [6]): 0
- Plant response rating, Velvetleaf (velvetleaf; [7]): 0
- Velvetleaf plant response rating (velvetleaf; [8]): 3
- Plant response rating, Nutsedge (purple nutsedge; [1]): 0
- Nutsedge plant response rating (purple nutsedge; [2]): 0
- Nutsedge plant response rating (purple nutsedge; [4]): 0
- Nutsedge plant response rating (purple nutsedge; [5]): 0
- Plant response rating, Nutsedge (purple nutsedge; [6]): 0
- Plant response rating, Nutsedge (purple nutsedge; [7]): 0
- Nutsedge plant response rating (purple nutsedge; [8]): 0
- Plant response rating, S. Flatsedge (0 to 10 scale, 0 is no effect, 10 is complete control) (smallflower flatsedge; [9]): 0
- S. Flatsedge plant response rating (0 to 10 scale, 0 is no effect, 10 is complete control) (smallflower flatsedge; [10]): 0
- S. Flatsedge plant response rating (smallflower flatsedge; [11]): 0
- S. Flatsedge plant response rating (smallflower flatsedge; [12]): 0
- Plant response rating, Ducksalad (0 to 10 scale, 0 is no effect, 10 is complete control) (duck salad; [9]): 0
- Ducksalad plant response rating (0 to 10 scale, 0 is no effect, 10 is complete control) (duck salad; [10]): 0
- Ducksalad plant response rating (duck salad; [11]): 0
- Ducksalad plant response rating (duck salad; [12]): 0
- Plant response rating, Barnyardgrass (0 to 10 scale, 0 is no effect, 10 is complete control) (bamyardgrass; [9]): 0
- Barnyardgrass plant response rating (0 to 10 scale, 0 is no effect, 10 is complete control) (bamyardgrass; [10]): 0
- Barnyardgrass plant response rating (bamyardgrass; [11]): 0
- Barnyardgrass plant response rating (bamyardgrass; [12]): 0
